Calls of active or inactive are those of the source. The rule behind the calls is not given here. Where only a bound is given, the exact number is not on record here.

For assay [1], the target named is Heat shock protein HSP90 (Homo sapiens) (UniProt P07900+P08238). Nature of the assay: Displacement of bis-ANS from human Hsp90 assessed as reduction in fluorescence at 100 uM after 30 mins by fluorescent monochromator spectrophotometry. The class given is protein assay.
Assay [2] deals with Plasmodium falciparum. Put plainly: Antimalarial activity against multidrug-resistant Plasmodium falciparum isolate 208432 infected in human erythrocytes after 48 hrs by flow-cytometry. The class given is functional, organism-based. The conditions noted are these: isolate 208432, 48 h.
Assay [3] deals with Plasmodium falciparum. Put plainly: Antimalarial activity against chloroquine-resistant Plasmodium falciparum W2 infected in human erythrocytes after 48 hrs by flow-cytometry. The class given is functional, organism-based. The following applies: W2, 48 h.
The test system of assay [4] is Plasmodium falciparum. Put plainly: Displacement of bis-ANS from Plasmodium falciparum 3D7 Hsp90 expressed in Escherichia coli BL21(DE3) assessed as reduction in fluorescence at 100 uM after 30 min by fluorescent monochromator spectrophotometry. The arrangement: scale not given: the % may be the effect or the level left. The class given is functional.
Assay [5] relates to Plasmodium falciparum. Put plainly: Antimalarial activity against Plasmodium falciparum 3D7 infected in human erythrocytes after 48 hrs by flow-cytometry. The assay is classed as functional, organism-based. The following applies: 3D7, 48 h.

With `NC(CP(=O)(O)O)C(=O)O` (racemic), in assay [1], the outcome was inactive. Besides, the IC50 (as a rule, the concentration that inhibits the measured activity by half) with Plasmodium falciparum [2] amounted to 47.1 nM; in the assay on Plasmodium falciparum [3] it was 84.4 nM; in the assay on Plasmodium falciparum [5] it was 60.3 nM. Also, in the assay on Plasmodium falciparum [4], the Activity was above 70%.

Take `C[C@@H]1CC[C@H]2[C@@H](C)C(=O)O[C@@H]3O[C@@]4(C)CC[C@@H]1[C@]32OO4` [ARTEMISININ]: the IC50 is 68.3 nM with Plasmodium falciparum [2], 7.3 nM in the assay on Plasmodium falciparum [3] and 6.1 nM in the assay with Plasmodium falciparum [5].

Take `COc1ccc2c(c1)[nH]c1c(C)nccc12` [HARMINE]: the result in assay [1] was inactive. In addition, the IC50 in the assay with Plasmodium falciparum [2] stood at 182 nM; with Plasmodium falciparum [3], 28 nM; in the assay with Plasmodium falciparum [5], 50.1 nM. Moreover, the Activity in the assay on Plasmodium falciparum [4] was above 70%.

As to `OC(c1cc(C(F)(F)F)nc2c(C(F)(F)F)cccc12)C1CCCCN1` (stereo not given) [MEFLOQUINE], the IC50 in the assay with Plasmodium falciparum [3] was 3.2 nM; in the assay with Plasmodium falciparum [5], 2.1 nM.

For the origin of these results see ChEMBL document CHEMBL1157896, “A repurposing strategy identifies novel synergistic inhibitors of Plasmodium falciparum heat shock protein 90” (J Med Chem, 2010).
